Laboratory results published in patent US11332756B2, “RNA virus vectors carrying DAI and RIPK3” (Institute For Cancer Research, priority 2016, dated 2022).
*1 amine or outer side, *2 acyl side, *3 side chain or, on linkers, in order; H or OH if unused. Where a SMILES comes first, the peptide text is derived from it. Bridges are numbered along the chain shown (N, C = ends). Roman numbers before positions name the chains, in order. [ ]: non-standard residue; d: D form. The star is where a group is joined. Actinocin(9to1) = Cc1c2oc3c(C)ccc(C(=O)[*:1])c3nc-2c(C(=O)[*:2])c(N)c1=O; NMeV = CN[C@H](C(=O)O)C(C)C; Cbz = O=C(OCc1ccccc1)*; Sar = CNCC(=O)O; CH2F = FC*

How the values were obtained:
[1] = molecular target: T1, RIPK3-RIPK1 necrosome (Mus musculus, UniProt Q9QZL0); assay: TNF-α-induced necrosome assembly in MEFs; assay type: cell-based, murine; details: same doses as in PR8 experiment; not shown
T1 construct: RIPK3 was immunoprecipitated from lysates of PR8-infected MEFs; endogenous in cells; host or cells: wild-type mouse embryo fibroblasts (MEFs)
T1 sequence (Q9QZL0 whole entry): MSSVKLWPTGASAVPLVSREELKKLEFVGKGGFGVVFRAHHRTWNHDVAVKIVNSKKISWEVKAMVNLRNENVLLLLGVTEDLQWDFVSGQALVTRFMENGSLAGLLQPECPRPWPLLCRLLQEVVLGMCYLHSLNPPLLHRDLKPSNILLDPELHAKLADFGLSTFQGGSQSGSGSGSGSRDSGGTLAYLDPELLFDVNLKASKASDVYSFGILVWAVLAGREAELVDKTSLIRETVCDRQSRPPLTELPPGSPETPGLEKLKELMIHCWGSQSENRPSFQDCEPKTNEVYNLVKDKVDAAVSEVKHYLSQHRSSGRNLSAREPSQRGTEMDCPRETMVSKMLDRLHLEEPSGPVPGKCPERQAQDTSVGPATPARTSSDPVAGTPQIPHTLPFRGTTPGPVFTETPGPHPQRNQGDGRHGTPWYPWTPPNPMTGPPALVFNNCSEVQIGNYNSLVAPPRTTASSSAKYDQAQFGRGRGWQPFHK
Text: (§1) IAV replication results in assembly of a RIPK3 complex containing RIPK1, FADD and MLKL. A molecular feature of RIPK3 dependent cell death is the stimulus-driven formation of a molecular complex called the necrosome, comprising as its core phosphorylated forms of RIPK3 and RIPK1, together with FADD and MLKL. From the necrosome, RIPK3 can activate both necroptosis and apoptosis, depending on target availability or RIPK3 activity. To test if IAV induced formation of a necrosome, RIPK3 was immunoprecipitated from lysates of PR8-infected MEFs, and immunoprecipitates were examined for the presence of slower-mobility forms of phosphorylated RIPK1. PR8 activated necrosome formation to a significant extent, as did the combination of PR8+zVAD (see, FIG. 4A, left and middle panels). Like TNF-α (see, FIG. 4A, right panels), IAV infection also drove the recruitment of FADD and MLKL into the RIPK3-RIPK1 necrosome.

[2] = test system: IAV (PR8); assay type: cell-based, Influenza A virus
[3] = molecular target: T1, RIPK3-RIPK1 necrosome; assay: IAV-induced RIPK3-RIPK1 necrosome formation (RIPK3 immunoprecipitation) in MEFs; assay type: cell-based, murine; details: for IAV (PR8)-induced RIPK3-RIPK1 necrosome / complex formation: PR8-infected MEFs, cells pre-treated with agent, RIPK3 immunoprecipitation
Text: as §1

[4] = test system: wild-type MEFs infected with PR8; assay type: cell-based, murine
[5] = test system: ripk1−/− MEFs infected with PR8; assay type: cell-based, murine
[6] = test system: TCZ-treated wild-type MEFs; assay type: cell-based, murine
[7] = test system: mlkl−/− MEFs infected with PR8; assay type: cell-based, murine
[8] = test system: MLKL phosphorylation and cleavage of caspase 8; assay: Immunoblot of phosphorylated MLKL and cleaved caspase 8 in PR8-infected MEFs; assay type: cell-based, murine; details: wild-type MEFs, zVAD 50 μM
[9] = test system: apoptosis activated by TRAIL and cycloheximide in MEFs; assay: Apoptosis induced by TRAIL and cycloheximide; assay type: cell-based, murine; details: TRAIL 2 μg/ml + CHX 250 ng/ml; anti-TRAIL-R2 10 μg/ml; zVAD same dose as in PR8 test
[10] = test system: ripk3−/− MEFs infected with PR8; assay type: cell-based, murine

| Compound | viral replication [2] | IAV (PR8)-induced RIPK3-RIPK1 necrosome / complex formation [3] | protection of viability after PR8 infection, inhibitor alone [4] | other results |
| --- | --- | --- | --- | --- |
| Cc1c2oc3c(C)ccc(C(=O)N[C@@H]4C(=O)N[C@H](C(C)C)C(=O)N5CCC[C@H]5C(=O)N(C)CC(=O)N(C)[C@@H](C(C)C)C(=O)O[C@@H]4C)c3nc-2c(C(=O)N[C@@H]2C(=O)N[C@H](C(C)C)C(=O)N3CCC[C@H]3C(=O)N(C)CC(=O)N(C)[C@@H](C(C)C)C(=O)O[C@@H]2C)c(N)c1=O [ActD, Actinomycin D] (I: T[dV]P[Sar][NMeV] / II: T[dV]P[Sar][NMeV]; ester I:1-I:C, II:1-II:C; linker I:N-II:N via Actinocin(9to1)) | effectively prevented | effectively prevented |  | effect on TNF-α-induced necrosome assembly [1]: Neither ActD nor CHX at these doses affected |
| C[C@@H]1C[C@@H]([C@H](O)CC2CC(=O)NC(=O)C2)C(=O)[C@@H](C)C1 [CHX, cycloheximide] | effectively prevented | effectively prevented |  | effect on TNF-α-induced necrosome assembly [1]: Neither ActD nor CHX at these doses affected |
| CN1C(=O)[C@@H](NC(=O)c2cc(Cc3ccccc3)on2)COc2ccccc21 [GSK'481] |  | inability of these agents to prevent IAV-driven necrosome formation | did not have any discernible protective effect |  |
| Cc1cc(-c2cnc(N)c3c(-c4ccc5scnc5c4)csc23)n(C)n1 [GSK'843] |  | blocked PR8-induced necrosome assembly | failed to prevent PR8-induced cell death | protection from PR8-induced cell death in ripk1−/− MEFs [5]: almost-fully protected; protection against TNF-α-induced necroptosis / cell death [6]: fully protective |
| CC(C)S(=O)(=O)c1ccc2nccc(Nc3ccc4scnc4c3)c2c1 [GSK'872] |  | blocked PR8-induced necrosome assembly | failed to prevent PR8-induced cell death | protection from PR8-induced cell death in ripk1−/− MEFs [5]: almost-fully protected; protection against TNF-α-induced necroptosis / cell death [6]: fully protective |
| CC(C)(C)C(=O)N1N=CC[C@H]1c1ccccc1 [GSK'963] |  | inability of these agents to prevent IAV-driven necrosome formation | did not have any discernible protective effect |  |
| CN1C(=O)C(Cc2c[nH]c3ccccc23)NC1=S (stereo not drawn) [Nec-1, Necrostatin 1] |  | inability of these agents to prevent IAV-driven necrosome formation | did not have any discernible protective effect |  |
| Cc1onc(-c2ccccc2)c1C(=O)N1CCN(c2ccc([N+](=O)[O-])cc2Cl)CC1 [nucleozin] | abrogated viral replication | potently blocked |  |  |
| CC[C@H](C)[C@H](NC(=O)OCc1ccccc1)C(=O)N[C@@H](CCC(=O)OC)C(=O)N[C@H](C(=O)N[C@@H](CC(=O)OC)C(=O)CF)[C@@H](C)O [zIETD, zIETD.fmk] (Cbz-IE(OMe)TD(OMe)-CH2F) |  |  |  | protection against PR8 compared with zVAD [7]: less protection against PR8 than zVAD; rescue from PR8-induced cell death in mlkl−/− MEFs [7]: significant protection |
| COC(=O)C[C@H](NC(=O)[C@H](C)NC(=O)[C@@H](NC(=O)OCc1ccccc1)C(C)C)C(=O)CF [zVAD, zVAD.fmk] (Cbz-Val-Ala-Asp(OMe)-CH2F) |  |  | did not protect | IAV-induced cleavage of caspase 8 [8]: inhibited; protection against apoptosis induced by TRAIL and cycloheximide [9]: prevented apoptosis; viability of PR8-infected ripk3−/− MEFs [10]: remained mostly alive; rescue from PR8-induced cell death in mlkl−/− MEFs [7]: fully rescued; necrosome formation induced by the agent alone ([3]; zVAD alone, 25 μM, no virus): did not induce detectable necrosome formation |
